Assay results: publication PMC6270160, “Bioactive Phenylpropanoid Glycosides from Tabebuia avellanedae” (Molecules, 2013)

How the values were obtained:
[1] = DPPH free radical scavenging (antioxidant) assay; settings: DPPH in MeOH, 30 min at room temperature in the dark, absorbance at 517 nm, triplicate; read-out: IC50 ± SD, scavenging activity on DPPH free radicals
Procedure: Test samples (100 µL) at different concentrations in MeOH and DPPH (200 µL, […]) in MeOH were added to 96-well microtiter plates. The plate was shaken for 1 min by a plate shaker, and incubated for 30 min at room temperature in the dark. After incubation, the absorbance was recorded at 517 nm. The tested samples at different concentrations without DPPH solution were used as blank control to eliminate the influence of the sample color. Ascorbic acid was used as positive control, and DPPH solution in MeOH served as a negative control. All tests were independently performed in triplicate. DPPH radical scavenging activity (%) = [1 − (AbsS − AbsB)/AbsC] × 100%.

cytochrome CYP3A4 enzyme = molecular target: T1, cytochrome CYP3A4 enzyme (Homo sapiens, UniProt P08684); assay: Inhibitory activity on cytochrome CYP3A4 enzyme (Vivid substrate, P450 BACULOSOMES, fluorescence); type: in vitro ADME; settings: 20 min pre-incubation, 30 min reaction, fluorescence at 460 nm; read-out: IC50 ± SD, inhibitory activity on CYP3A4 enzyme
T1 construct: purchased
Procedure: Measurement of inhibitory activity on cytochrome CYP3A4 enzyme vivid substrate and fluorescent standards were reconstituted and a standard curve was prepared. 40 µL of test samples at different concentrations diluted in 1% DMSO, positive inhibition control and solvent were added to each 96-well plate, then was added 50 µL of Master pre-mix consisting of P450 BACULOSOMES in vivid CYP 450, Reaction Buffer and Regeneration System (consisting of glucose-6-phosphate and glucose-6-phosphate dehydrogenase), and the plate was mixed and incubated for 20 min to allow samples to interact with the CYP3A4 enzyme. The reaction was started by addition of 10 µL reaction starting liquid including vivid substrate, NADP and Reaction Buffer mixture, and the fluorescence was recorded using a LAS-3000 luminescent image analyzer at a wavelength of 460 nm after 30 min duration of reaction. The inhibition rate was calculated using the equation: % inhibition = [1 − relative fluorescence units (rfu) in the presence of the test sample or positive inhibition control/rfu in the absence of the test compound or positive inhibition control] × 100.

T1 sequence (P08684 whole entry): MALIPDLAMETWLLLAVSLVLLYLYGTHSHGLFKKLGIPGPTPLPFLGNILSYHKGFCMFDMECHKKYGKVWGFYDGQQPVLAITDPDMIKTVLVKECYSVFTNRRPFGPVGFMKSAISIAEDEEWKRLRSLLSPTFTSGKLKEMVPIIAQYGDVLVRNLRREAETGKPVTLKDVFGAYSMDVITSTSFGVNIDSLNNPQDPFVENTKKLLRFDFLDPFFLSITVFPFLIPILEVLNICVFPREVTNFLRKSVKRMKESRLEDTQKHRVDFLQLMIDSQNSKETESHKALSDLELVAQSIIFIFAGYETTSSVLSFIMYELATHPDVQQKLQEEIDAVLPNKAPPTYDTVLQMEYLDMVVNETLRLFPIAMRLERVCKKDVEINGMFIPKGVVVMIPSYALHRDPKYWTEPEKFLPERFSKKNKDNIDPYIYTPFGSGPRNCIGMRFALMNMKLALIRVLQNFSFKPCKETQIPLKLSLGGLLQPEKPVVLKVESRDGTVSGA

IC50 [1] [µM]	IC50 (cytochrome CYP3A4 enzyme) [µM]	SMILES
1 ± 0.02	43.3 ± 1.79	CC1OC(OC2C(O)C(OCCc3ccc(O)c(O)c3)OC(CO)C2OC(=O)C=Cc2ccc(O)c(O)c2)C(O)C(O)C1O [Compound 2, 1′-O-β-(3,4-dihydroxyphenyl)-ethyl-4′-O-caffeoyl-α-L-fucopyranosyl-(l-3′)-D-glucopyranoside]
0.66 ± 0.04	37.7 ± 2.11	CC1OC(OC2C(O)C(OCCc3ccc(O)c(O)c3)OC(CO)C2OC(=O)C=Cc2ccc(O)c(O)c2)C(O)C(O)C1O (stereo not shown) [Compound 3]
0.24 ± 0.01	15.1 ± 2.43	CC1OC(OC2C(O)C(CO)OC(OCCc3ccc(O)c(O)c3)C2O)C(O)C(O)C1OC(=O)C=Cc1ccc(O)c(O)c1 [Compound 6, 1′-O-β-(3,4-dihydroxyphenyl)-ethyl-[4′′-O-caffeoyl-(α-L-fucopyranosyl)]-(l-3′)-D-galactopyranoside]
0.12 ± 0.03	22.5 ± 1.65	C[C@@H]1O[C@@H](O[C@H]2[C@@H](O)[C@@H](CO)O[C@@H](OCCc3ccc(O)c(O)c3)[C@@H]2O)[C@H](O)[C@H](O)[C@H]1OC(=O)/C=C/c1ccc(O)c(O)c1 [Compound 5, 1'-O-β-(3,4-dihydroxyphenyl)-ethyl-[4′′-O-caffeoyl-(α-L-rhamnopyranosyl)]-(l-3′)-D-galactopyranoside]
3.08 ± 0.06		O=C1O[C@H]([C@@H](O)CO)C(O)=C1O [Ascorbic acid, reference compound]
2.33 ± 0.06	46.3 ± 1.53	CC1OC(OC2C(O)C(OCCc3ccc(O)c(O)c3)OC(CO)C2OC(=O)C=Cc2ccc(O)c(O)c2)C(O)C(O)C1O (stereo not shown) [Compound 1]
1.15 ± 0.04	91.7 ± 5.44	CC1OC(OC2C(O)C(COC(=O)C=Cc3ccc(O)c(O)c3)OC(OCCc3ccc(O)c(O)c3)C2O)C(O)C(O)C1O (stereo not shown) [Compound 4]
